Test results as given in BindingDB's records for patent US10052306 (CADENT THERAPEUTICS, INC., 2018).

Biological target: Glutamate receptor ionotropic, NMDA 2B (Homo sapiens, UniProt Q13224)
Assay: FDSS Assay
Method: To each well of the plate, 10 μL test compound, control (MK801) or HHnoCa buffer was added to a final concentration of 10 μM with a final concentration of DMSO of 0.1%. Following 10 minutes pre-incubation in the dark, plates are loaded onto the Hamamatsu FDSS 6000. After collecting baseline fluorescence images, 3 μM glutamate, 3 glycine, and 1 mM Ca2+ in HHnoCa buffer is added to each well, and Ca2+ is recorded for 3 minutes. Data were processed by computing ratio of fluorescence at the end of data collection to baseline fluorescence to assess degree of Ca′ influx inhibition relative to that observed in MK801.

Chain of Glutamate receptor ionotropic, NMDA 2B (Q13224 whole entry): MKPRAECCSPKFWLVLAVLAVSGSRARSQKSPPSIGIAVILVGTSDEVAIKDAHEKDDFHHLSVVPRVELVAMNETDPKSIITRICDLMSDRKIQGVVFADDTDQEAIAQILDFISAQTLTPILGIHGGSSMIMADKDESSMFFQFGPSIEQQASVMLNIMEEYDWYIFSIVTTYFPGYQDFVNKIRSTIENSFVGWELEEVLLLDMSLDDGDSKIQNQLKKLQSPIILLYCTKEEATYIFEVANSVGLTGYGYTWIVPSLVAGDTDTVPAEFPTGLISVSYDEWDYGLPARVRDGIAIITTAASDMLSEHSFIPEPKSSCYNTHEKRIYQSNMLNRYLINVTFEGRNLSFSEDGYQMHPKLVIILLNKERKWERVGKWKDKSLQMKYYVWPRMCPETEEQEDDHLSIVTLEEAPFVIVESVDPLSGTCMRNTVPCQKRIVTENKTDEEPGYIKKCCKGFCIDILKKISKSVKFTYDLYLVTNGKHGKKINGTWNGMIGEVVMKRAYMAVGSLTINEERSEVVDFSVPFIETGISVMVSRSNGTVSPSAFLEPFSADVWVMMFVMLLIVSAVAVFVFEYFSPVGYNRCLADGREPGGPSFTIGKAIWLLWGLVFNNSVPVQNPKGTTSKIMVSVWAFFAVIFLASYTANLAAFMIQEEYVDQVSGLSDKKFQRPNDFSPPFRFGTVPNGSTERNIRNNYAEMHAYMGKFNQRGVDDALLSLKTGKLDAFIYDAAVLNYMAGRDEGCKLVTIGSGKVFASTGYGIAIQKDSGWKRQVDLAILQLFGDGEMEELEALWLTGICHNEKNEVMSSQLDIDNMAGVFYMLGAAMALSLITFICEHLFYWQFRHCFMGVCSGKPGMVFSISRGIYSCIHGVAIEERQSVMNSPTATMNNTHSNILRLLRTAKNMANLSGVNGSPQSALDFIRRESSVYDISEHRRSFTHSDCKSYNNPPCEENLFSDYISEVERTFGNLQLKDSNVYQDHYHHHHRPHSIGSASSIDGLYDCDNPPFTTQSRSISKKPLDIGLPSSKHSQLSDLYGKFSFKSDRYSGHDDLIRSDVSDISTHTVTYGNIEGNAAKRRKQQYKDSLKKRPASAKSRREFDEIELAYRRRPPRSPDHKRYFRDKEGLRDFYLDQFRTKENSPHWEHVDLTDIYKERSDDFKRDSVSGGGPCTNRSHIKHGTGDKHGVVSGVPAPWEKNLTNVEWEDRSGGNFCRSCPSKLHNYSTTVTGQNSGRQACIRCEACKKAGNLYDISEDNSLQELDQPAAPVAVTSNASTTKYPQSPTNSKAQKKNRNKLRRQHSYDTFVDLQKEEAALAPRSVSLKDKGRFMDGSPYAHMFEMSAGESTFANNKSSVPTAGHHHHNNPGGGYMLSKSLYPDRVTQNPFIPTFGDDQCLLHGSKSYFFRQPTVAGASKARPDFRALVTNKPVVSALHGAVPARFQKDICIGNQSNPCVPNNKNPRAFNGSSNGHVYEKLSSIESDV

IC50: 10 µM
SMILES: O=C(CN1C[C@@H]2C[C@@](O)(c3ccccc3)C[C@@H]2C1)c1ccc(O)cc1 [US10052306, 65]
